Measured values from publication PMC8899577, “Targeting the anti-apoptotic Bcl-2 family proteins: machine learning virtual screening and biological evaluation of new small molecules” (Theranostics, 2022).

Key:
Sbcl2 melanoma cells = test: Cell viability by MTT, Sbcl2; format: cell-based; conditions: Homo sapiens, 72 h
Experimental: (§1) The effect of compounds on cell viability was performed by measuring 3-[4,5-dimethylthiazol-2-yl]-2,5-diphenyltetrazolium bromide inner salt (MTT, Sigma-Aldrich) dye absorbance (solid tumor cells) or by quantization of ATP present in metabolically active cells using CellTiter-Glo® Luminescent (Promega, Fitchburg, Wisconsin, USA) (hematologic cells) following manifacturer's protocol. To evaluate the cell colony-forming ability, cell suspension from different samples was seeded into 60-mm Petri dishes. After 10 days, colonies were stained with 2% methylene blue in 95% ethanol and counted (1 colony > 50 cells). The surviving fractions were calculated as the ratio of absolute survival of the treated sample/survival of DMSO-treated control sample.
Figure 1 Cytotoxic screening of putative inhibitors of Bcl-2 anti-apoptotic proteins. (A) Flow cytometric quantification of propidium iodide exclusion assay in HL60 cells treated with the 49 putative Bcl-2 family inhibitors (50 μM, 72 h). (B) Analysis of cell viability by CellTiterGlo assay in HL60 cells treated for 24 h with concentrations ranging from 5 to 50 μM of the indicated compounds. (C-D) Analysis of cell viability by MTT assay in (C) M14 and (D) Sbcl2 melanoma cell lines treated for 72 h with concentrations ranging from 5 to 50 μM of the indicated compounds. […]

H1299 cells = test: Clonogenic assay, H1299; format: cell-based, Human; conditions: 20 µM for 72 h, respect to controls
Experimental: as §1
Figure 4 Analysis of the effect of IS20 and IS21 on cell viability, clonogenic ability and tumor sphere formation in cancer cells. […] (B) Representative images and quantification of clonogenic ability evaluated in M14 and H1299 cells treated with IS20 or IS21 (20 μM for 72 h). […] (C) Quantification of tumor sphere formation of M14 and H1299 cells treated with IS20 or IS21 (20 μM for 72 h). […] (A-C) Data are reported as mean ± SD of three independent experiments. p-values were calculated between control (Ctrl) and treated cells, ** p < 0.001 and *** p < 0.0001.

normal human fibroblasts = test: Viability of normal fibroblasts; format: cell-based; conditions: data not shown
M14 cells = test: Tumor sphere formation assay, M14; format: cell-based, Human; conditions: 20 µM for 72 h, respect to controls
Experimental: For tumor sphere assay, cells were recovered after treatment, counted and seeded in 24-well ultralow attachment surface plates at a density of 5 × 10^2 cells/well and cultured as previously described. After 10 days, spheres were photographed and counted. The percentage of spheres normalized to the number of seeded cells was calculated.
Figure 4 Analysis of the effect of IS20 and IS21 on cell viability, clonogenic ability and tumor sphere formation in cancer cells. (A) Analysis of cell viability by MTT assay in M14, H1299, HCT116 and MDA-MB-231 cell lines treated with IS20 or IS21 (20 μM for 72 h). The results are reported as “viability of treated cells/viability of control cells (Ctrl)” × 100. (B) Representative images and quantification of clonogenic ability evaluated in M14 and H1299 cells treated with IS20 or IS21 (20 μM for 72 h). Results are reported as percentage of clonogenicity of treated versus control cells. (C) Quantification of tumor sphere formation of M14 and H1299 cells treated with IS20 or IS21 (20 μM for 72 h). Results are reported as percentage of tumor sphere formation of treated versus control. (A-C) Data are reported as mean ± SD of three independent experiments. p-values were calculated between control (Ctrl) and treated cells, ** p < 0.001 and *** p < 0.0001.

| SMILES | IC50 (Sbcl2 melanoma cells) [µM] | decrease of cell colony formation, H1299 (H1299 cells) | effect on normal human fibroblasts viability (normal human fibroblasts) | decrease of sphere formation capacity, M14 (M14 cells) |
| --- | --- | --- | --- | --- |
| CCCCOc1ccc(C2/C(=C(\O)c3ccc4c(c3)CC(C)O4)C(=O)C(=O)N2c2nnc(SCc3ccc(Cl)cc3)s2)cc1OCC (centres unmarked) [IS20] | 21 | 80-90% | no significant effect | about 60% |
| CCCCCOc1ccc(C2/C(=C(\O)c3ccc4c(c3)CC(C)O4)C(=O)C(=O)N2c2nnc(SCc3ccc(Cl)cc3)s2)cc1OCC (centres unmarked) [IS21] | 19.8 | 80-90% | no significant effect | about 60% |
